Test results reported in patent US11542273B2, “Amide compound having bet proteolysis-inducing action and medicinal application thereof” (MITSUBISHI TANABE PHARMA CORPORATION, priority 2018, dated 2023).

Key:
[1] = test system: human prostate cancer LNCaP cells; test: Cytotoxic action on cancer cells (WST-8, 96 hr); assay type: cell-based; details: Homo sapiens, LNCaP, 96 h, read-out: LNCaP cytotoxic activity: IC50
Procedure: The cytotoxic action of the compound of the present invention against human cancer cells was evaluated in vitro. In this experiment, (+)-JQ1 (Nature volume 468, pages 1067-1073 (23 Dec. 2010)) known to have an inhibitory activity on the binding of BRD4 protein and a ligand therefor was used as a positive control drug. Respective cells were suspended in 10% FBS/RPMI1640, seeded in a 96 well plate and cultured at 5% CO2, 37° C. overnight. A test compound dissolved in DMSO was diluted with 10% FBS/RPMI1640 and added and the cells were further cultured for 96 hr. After culturing, the viable cell number was measured using a cell number measurement WST-8 kit (Kishida Chemical Co., Ltd.). As a control, the measurement was performed under conditions free of the test compound. The cytotoxic activity of the compound of the present invention against human prostate cancer LNCaP cells is shown in IC50 value in Table 1. […] It was calculated from the straight line connecting the cell survival rate at two points enclosing the 50% cell survival rate and the compound concentration. In addition, the cytotoxic activity against respective cancer cells of human acute myeloid leukemia MV-4-11 cell, human chronic myeloid leukemia K562 cell, human multiple myeloma MM.1S cell, human diffuse large B-cell lymphoma SU-DHL-6 cell, human T-cell leukemia Jurkat cells, human Burkitt lymphoma Raji cell, human castration-resistant prostate cancer PC-3 cell, human ovarian cancer A2780 cell, human bladder cancer 5637 cell, human breast cancer ZR-75-1 cell, human triple negative breast cancer MDA-MB-231 cell, human uterine sarcoma MES-SA cell, human gastric cancer SNU-16 cell, human non-small cell lung cancer NCI-H1975 cell, human small cell lung cancer NCI-H82 cell, human large cell lung cancer NCI-H460 cell, human colorectal cancer HCT116 cell, human glioma U-87 MG cell, human pancreatic cancer AsPC-1 cell, and human liver cancer Hep G2 cell is shown in IC50 value in Table 2.

[2] = molecular target: BRD4 protein (Homo sapiens (Human), UniProt O60885); test: BRD4 protein degradation inducing action in cancer cells (immunofluorescence, Operetta); assay type: cell-based; details: LNCaP cells, 6 hr treatment, fluorescence intensity
Procedure: The degradation inducing action of the compound of the present invention on BRD4 protein in cancer cells was evaluated in vitro using human prostate cancer LNCaP cells. LNCaP cells were suspended in 10% FBS/RPMI1640, seeded in a 96 well Cell carrier plate (Perkin Elmer) and cultured at 5% CO2, 37° C. overnight. A test compound dissolved in DMSO was diluted with 10% FBS/RPMI1640 and added and the cells were further cultured for 6 hr. After culturing, the cells were immobilized with 4% para-formaldehyde/PBS and further subjected to a permeation treatment with 0.25% Triton X-100/PBS. Thereafter, the cells were blocked with 10% BSA/PBS, a solution containing Anti-Brd4 antibody (Abcam) or Anti-BRD4 (Sigma-Aldrich) as the primary antibody was added and the cells were incubated at 4° C. overnight. Thereafter, as the secondary antibody, a solution containing secondary antibody A shown below was added to Example compounds 1-190, 223 and 224, and a solution containing secondary antibody B shown below was added to Example compounds 191-222, and 0.5 μg/mL Hoechst 33342 (Sigma-Aldrich) and 14 μM Acti-Stain 555 Fluorescent Phalloidin (Cytoskeleton) were further added. After incubation for 1 hr, BRD4 protein amount was measured by Operetta (Perkin Elmer) as fluorescence intensity.
• Anti-Rabbit IgG(H+L), F(ab′)2 Fragment (Alexa Fluor 488 Conjugate) (Cell Signaling Technology), fluorescence intensity was measured at excitation: 495 nm, emission: 519 nm. Secondary Antibody B • Goat anti-Rabbit IgG(H+L) Cross-Adserbed Secondary Antibody (Alexa Fluor 546) (Thermo Fisher Scientific) fluorescence intensity was measured at excitation: 560 nm, emission: 572 nm.
The BRD4 protein degradation inducing activity of the compound of the present invention in LNCaP cells is shown in DC50 value in Table 3. The DC50 value is a concentration of the compound showing 50% fluorescence intensity when the fluorescence intensity thereof under compound untreated condition is 100%. It was calculated from the straight line connecting the fluorescence intensity at two points enclosing the 50% fluorescence intensity and the compound concentration.

DC50 [2] [nM]	SMILES	IC50 [1] [nM]
0.031	COC(=O)C[C@@H]1N=C(c2ccc(-c3ccc4nc(C(=O)N[C@H](C(=O)N5C[C@H](O)C[C@H]5C(=O)N[C@@H](C)c5ccc(-c6scnc6C)cc5)C(C)(C)C)oc4c3)cc2)c2c(sc(C)c2C)-n2c(C)nnc21 [Example 181, methyl [(6S)-4-{4-[2-({(2S)-1-[(2S,4R)-4-hydroxy-2-({(1S)-1-[4-(4-methyl-1,3-thiazol-5-yl)phenyl]ethyl}carbamoyl)pyrrolidin-1-yl]-3,3-dimethyl-1-oxobutan-2-yl}carbamoyl)-1,3-benzoxazol-6-yl]phenyl}-2,3,9-trimethyl-6H-thieno[3,2-f][1,2,4]triazolo[4,3-a][1,4]diazepin-6-yl]acetate]	0.037
0.93	COC(=O)C[C@@H]1N=C(c2ccc(-c3ccc(C(=O)N[C@H](C(=O)N4C[C@H](O)C[C@H]4C(=O)N[C@@H](C)c4ccc(-c5scnc5C)cc4)C(C)(C)C)c(C)c3)cc2)c2c(sc(C)c2C)-n2c(C)nnc21 [Example 183, methyl {(6S)-4-[4′-({(2S)-1-[(2S,4R)-4-hydroxy-2-({(1S)-1-[4-(4-methyl-1,3-thiazol-5-yl)phenyl]ethyl}carbamoyl)pyrrolidin-1-yl]-3,3-dimethyl-1-oxobutan-2-yl}carbamoyl)-3′-methyl[1,1′-biphenyl]-4-yl]-2,3,9-trimethyl-6H-thieno[3,2-f][1,2,4]triazolo[4,3-a][1,4]diazepin-6-yl}acetate]	1.5
0.66	COC(=O)N(C)C1N=C(c2ccc(-c3ccc(OCC(=O)N[C@H](C(=O)N4C[C@H](O)C[C@H]4C(=O)N[C@@H](C)c4ccc(-c5scnc5C)cc4)C(C)(C)C)cc3)cc2)c2c(sc(C)c2C)-n2c(C)nnc21 (stereo partly drawn) [Example 35, methyl (4-{4′-[2-({(2S)-1-[(2S,4R)-4-hydroxy-2-({(1S)-1-[4-(4-methyl-1,3-thiazol-5-yl)phenyl]ethyl}carbamoyl)pyrrolidin-1-yl]-3,3-dimethyl-1-oxobutan-2-yl}amino)-2-oxoethoxy][1,1′-biphenyl]-4-yl}-2,3,9-trimethyl-6H-thieno[3,2-f][1,2,4]triazolo[4,3-a][1,4]diazepin-6-yl)methylcarbamate]	3.9
0.11	COC(=O)C[C@@H]1N=C(c2ccc(-c3ccc4sc(C(=O)N[C@H](C(=O)N5C[C@H](O)C[C@H]5C(=O)N[C@@H](C)c5ccc(-c6scnc6C)cc5)C(C)(C)C)nc4c3)cc2)c2c(sc(C)c2C)-n2c(C)nnc21 [Example 179, methyl [(6S)-4-{4-[2-({(2S)-1-[(2S,4R)-4-hydroxy-2-({(1S)-1-[4-(4-methyl-1,3-thiazol-5-yl)phenyl]ethyl}carbamoyl)pyrrolidin-1-yl]-3,3-dimethyl-1-oxobutan-2-yl}carbamoyl)-1,3-benzothiazol-5-yl]phenyl}-2,3,9-trimethyl-6H-thieno[3,2-f][1,2,4]triazolo[4,3-a][1,4]diazepin-6-yl]acetate]	0.21
0.61	COC(=O)C[C@@H]1N=C(c2ccc(-c3ccc(OC(C)C(=O)N[C@H](C(=O)N4C[C@H](O)C[C@H]4C(=O)N[C@@H](C)c4ccc(-c5scnc5C)cc4)C(C)(C)C)cc3)cc2)c2c(sc(C)c2C)-n2c(C)nnc21 (stereo partly drawn) [Example 50, methyl [(6S)-4-(4′-{[1-({(2S)-1-[(2S,4R)-4-hydroxy-2-({(1S)-1-[4-(4-methyl-1,3-thiazol-5-yl)phenyl]ethyl}carbamoyl)pyrrolidin-1-yl]-3,3-dimethyl-1-oxobutan-2-yl}amino)-1-oxopropan-2-yl]oxy}[1,1′-biphenyl]-4-yl)-2,3,9-trimethyl-6H-thieno[3,2-f][1,2,4]triazolo[4,3-a] [1,4]diazepin-6-yl]acetate]	0.25
0.26	COC(=O)C[C@@H]1N=C(c2ccc(-c3ccc(C(=O)N[C@H](C(=O)N4C[C@H](O)C[C@H]4C(=O)N[C@@H](C)c4ccc(-c5scnc5C)cc4)C(C)C)cc3)cc2)c2c(sc(C)c2C)-n2c(C)nnc21 [Example 210, methyl {(6S)-4-[4′-({(2S)-1-[(2S,4R)-4-hydroxy-2-({(1S)-1-[4-(4-methyl-1,3-thiazol-5-yl)phenyl]ethyl}carbamoyl)pyrrolidin-1-yl]-3-methyl-1-oxobutan-2-yl}carbamoyl)[1,1′-biphenyl]-4-yl]-2,3,9-trimethyl-6H-thieno[3,2-f][1,2,4]triazolo[4,3-a][1,4]diazepin-6-yl}acetate]	0.29
0.52	CCOC(=O)c1ncsc1-c1ccc(CNC(=O)[C@@H]2C[C@@H](O)CN2C(=O)[C@@H](NC(=O)c2ccc(-c3ccc(C4=N[C@@H](CC(=O)OC)c5nnc(C)n5-c5sc(C)c(C)c54)cc3)cc2)C(C)(C)C)cc1 [Example 219, ethyl 5-{4-[({(2S,4R)-4-hydroxy-1-[(2S)-2-({4′-[(6S)-6-(2-methoxy-2-oxoethyl)-2,3,9-trimethyl-6H-thieno[3,2-f] [1,2,4]triazolo[4,3-a][1,4]diazepin-4-yl][1,1′-biphenyl]-4-carbonyl}amino)-3,3-dimethylbutanoyl]pyrrolidine-2-carbonyl}amino)methyl]phenyl}-1,3-thiazole-4-carboxylate]	0.52
0.55	Cc1ncsc1-c1ccc([C@H](C)NC(=O)[C@@H]2C[C@@H](O)CN2C(=O)[C@@H](NC(=O)C2(OCCCc3ccc(C4=N[C@@H](C)c5nnc(C)n5-c5sc(C)c(C)c54)cc3)CC2)C(C)(C)C)cc1 [Example 199, (2S,4R)-1-[(2S)-3,3-dimethyl-2-{[1-(3-{4-[(6S)-2,3,6,9-tetramethyl-6H-thieno[3,2-f][1,2,4]triazolo[4,3-a] [1,4]diazepin-4-yl]phenyl}propoxy)cyclopropane-1-carbonyl]amino}butanoyl]-4-hydroxy-N-{(1S)-1-[4-(4-methyl-1,3-thiazol-5-yl)phenyl]ethyl}pyrrolidine-2-carboxamide]	0.64
0.92	COC(=O)C[C@@H]1N=C(c2ccc(-c3ccc(C(=O)N[C@H](C(=O)N4C[C@H](O)C[C@H]4C(=O)NCc4ccc(-c5scnc5CO)cc4)C(C)(C)C)cc3)cc2)c2c(sc(C)c2C)-n2c(C)nnc21 [Example 220, methyl [(6S)-4-(4′-{[(2S)-1-{(2S,4R)-4-hydroxy-2-[({4-[4-(hydroxymethyl)-1,3-thiazol-5-yl]phenyl}methyl)carbamoyl]pyrrolidin-1-yl}-3,3-dimethyl-1-oxobutan-2-yl]carbamoyl}[1,1′-biphenyl]-4-yl)-2,3,9-trimethyl-6H-thieno[3,2-f][1,2,4]triazolo[4,3-a][1,4]diazepin-6-yl]acetate]	0.92
0.77	COC(=O)C[C@@H]1N=C(c2ccc(-c3ccc(C(=O)N[C@@H](C)C(=O)N[C@H](C(=O)N4C[C@H](O)C[C@H]4C(=O)N[C@@H](C)c4ccc(-c5scnc5C)cc4)C(C)(C)C)cc3)cc2)c2c(sc(C)c2C)-n2c(C)nnc21 [Example Compound 91, methyl [(6S)-4-(4′-{[(2S)-1-({(2S)-1-[(2S,4R)-4-hydroxy-2-({(1S)-1-[4-(4-methyl-1,3-thiazol-5-yl)phenyl]ethyl}carbamoyl)pyrrolidin-1-yl]-3,3-dimethyl-1-oxobutan-2-yl}amino)-1-oxopropan-2-yl]carbamoyl}[1,1′-biphenyl]-4-yl)-2,3,9-trimethyl-6H-thieno[3,2-f] [1,2,4]triazolo[4,3-a][1,4]diazepin-6-yl]acetate]	0.54
